IC50 data for 6 compounds are collected here from ChEMBL document CHEMBL6109161, “Novel Pyrazolo[1,5-a]pyrimidine-3,5-diamines as nSMase2 Inhibitors” (ACS Med Chem Lett, 2025).

Structures are written as SMILES.

A word on the IC50: it is the concentration that inhibits the measured activity by half.

The nature of this assay: Inhibition of recombinant human neutral sphingomyelinase 2 using […] as substrate in presence of alkaline phosphatase, choline oxidase and horseradish peroxidase by fluorescence-based coupled assay.
As to `CN(C)c1cnn2ccc(N3CCOCC3)nc12`, the IC50 was 60 nM.

As to `CC1CCCN1c1ccn2ncc(N(C)C)c2n1` (stereo unspecified), the IC50 was determined as 70 nM.

With `CN(C)c1cnn2ccc(NCc3ccc(C(F)(F)F)cc3)nc12`, the IC50 is 40 nM.

For the compound `CN(C)c1cnn2ccc(NCc3ccccc3)nc12`, the IC50 was determined as 80 nM.

On to `CN(C)c1ccc(CNc2ccn3ncc(N(C)C)c3n2)cc1`, for which the IC50 came out at 100 nM.

Take `COc1ccc(CNc2ccn3ncc(N(C)C)c3n2)cc1OC`: the IC50 amounted to 30 nM.
